Entries after “also recorded” stand apart in the source; their conditions may differ.

The term IC50 denotes the point on the concentration scale where inhibition reaches its midpoint. Higher therefore signals weaker potency.

Series [1] deals with progenitor cells in the rodents’ hippocampi. Kind of series: Proliferation stage of neurogenesis: BrdU labeling, rats sacrificed 24 h after BrdU. The class given is in vivo, rat. The note with it: i.p. 4.0 mg/kg/day for 28 days, BrdU pulse, vs vehicle; for proliferation-promoting activity (number of BrdU+ positive cells): nine-week-old rats (n = 4), Figure 8, 4 mg/kg/day. The source says: (§1) Previous in vitro or in vivo studies mainly focused on stimulating the proliferation effect of the small molecules. In this study, a two-step protocol was employed. First, the stimulating function of the compounds on progenitor cells in the rodents’ hippocampi was examined with using bromodeoxyuridine (BrdU) labeling. Next, the potent compounds were further screened to ascertain their ability to promote the differentiation of neural progenitor cells, as confirmed by dual labeling of BrdU and NeuN (neuronal nuclear antigen).
Adult rats were administered intraperitoneally with the prepared compounds at a dose of 4.0 mg/kg/day for a period of 28 days, followed by a BrdU pulse. After 24 h, the rats were sacrificed, and their brain tissues were isolated and cryosectioned. Immunohistochemical staining was performed and eight brain tissue slices were randomly selected for statistical analyzing.
Eight-week-old (or 10-week-old) SD male rats purchased from Peking University Health Science Center were acclimatized for one week at the Beijing Institute of Technology. All experimental protocols strictly adhered to the regulations governing the management of experimental animals and the animal ethics policy of the Beijing Institute of Technology.
(§2) The compounds were dissolved in reagent-grade soybean oil containing 10% ethanol to reach a drug concentration of 2.8 mg/mL. The rats in the experimental group received intraperitoneal injections of the compounds at a dose of 4.0 mg/kg/d for 28 consecutive days. As a control, the vehicle group was administered injections of reagent-grade soybean oil containing 10% ethanol. BrdU (Sigma-Aldrich, St. louis, MA, USA) solution, prepared in physiological saline at a concentration of 10 mg/mL, was administered to all rats on day 29. Each rat received two injections of BrdU at a dosage of 50 mg/kg, with a 2 h interval between injections. The rats were euthanized 24 h (or 28 days) after the final BrdU injection.
(§3) Two or four rats per group were anesthetized using pentobarbital sodium (70 mg/kg) and subsequently perfused with physiological saline. The brain tissue was carefully dissected and fixed in 4% paraformaldehyde at 4 °C for one week. Next, the brain tissue underwent dehydration using a phosphate-buffered saline (PBS) solution containing 20% to 30% sucrose. Finally, the brain tissue was cryosectioned into slices with a thickness of 30 μm, and eight slices were randomly selected for further analysis.
The assessment of new cell proliferation was conducted using BrdU staining. To eliminate endogenous peroxides, sections were exposed to 1% H2O2 for 30 min at RT. Cellular denaturation was achieved by treating the sections with 2 M HCl at 37 °C for 1 h, followed by rinsing in 0.1 M borate buffer (pH 8.5). Tissue sections were subjected to blocking in a solution consisting of 5% goat serum and 0.5% Triton X-100 in PBS at RT for 1–2 h. The specimens were then incubated overnight at 4 °C with a mouse primary antibody specific to BrdU (diluted at 1:500; Millipore, Billerica, MA, USA). Subsequently, the DAB kit was employed for 2 h of incubation at RT.
(§4) The data were presented as mean ± SEM (standard error of the mean) and visualized using GRAPHPAD PRISM 6 (Graphpad Software, La Jolla, CA, USA). Statistical analysis was conducted utilizing one-way analysis of variance (ANOVA) followed by a post hoc test. Subsequent to the statistical treatment, the observed discrepancies were determined to be statistically significant (p < 0.05).
Background: Dividing cells build labelled thymidine or BrdU into new DNA.

In series [2] the test system is newborn neural progenitor cells (differentiation into mature neurons). Briefly: Differentiation stage of neurogenesis: NeuN/BrdU double staining, rats sacrificed 28 days after BrdU. The class given is in vivo, rat. The note with it: for neurogenesis-promoting activity (number of NeuN+ and BrdU+ cells), differentiation stage: nine-week-old rats (n = 4), i.p. 4.0 mg/kg, Figure 9, 4 mg/kg.
From the text: as §1
The study employed a rat model, wherein nine-week-old rats were administered intraperitoneally with the compound at a dose of 4.0 mg/kg/day for 28 days and then treated with a pulse of BrdU. Instead of sacrificing the rats 24 h after the BrdU injections, the rats were sacrificed after another 28 days. The brains were then isolated and cryosectioned. Eight randomly selected slices were subjected to immunohistochemical staining. This staining enabled the co-localization of the BrdU-incorporated cells with the NeuN marker, enabling the definition of the compounds that could promote the differentiation of newborn neural progenitor cells into mature functional neurons.
as §2, §3
The differentiation process of NPCs was visualized through the utilization of the NeuN/BrdU double staining technique. Tissue sections were subjected to an incubation period in a blocking buffer at RT for 1 to 2 h. The specimens were exposed to a rabbit anti-NeuN antibody (diluted at 1:500, Abcam, Cambridge, MA, UK) and a primary antibody, BrdU (diluted at 1:500), overnight at 4 °C. Afterwards, the sections were treated with anti-mouse 488 and anti-rabbit TRITC secondary antibodies for 2 h at RT.
as §4

The subject of series [3] is hCMEC/D3 cells. Kind of series: CCK-8 assay for cytotoxicity. The class given is cell-based. The note with it: hCMEC/D3 cell lines, CCK-8, 48 h incubation. How it is done: hCMEC/D3 cells were obtained from the Cell Resource Center, Peking Union Medical College (PCRC). All cells were acquired in 2023 and were maintained in culture for no more than 10 continuous passages. The cells were cultured in DMEM (11995065, Gibco, Grand Island, NY, USA) supplemented with 10% FBS (164210-50, Procell, Austin, TX, USA), 100 units of penicillin, and […] of streptomycin (PB180120, Procell).
hCMEC/D3 cells (5 × 10^3) were seeded into 96-well plates in 90 μL of DMEM medium containing 10% fetal bovine serum per well. All test compounds were formulated as 10 mM stock solutions in DMSO (final concentration ≤ 0.5%). After overnight incubation, the test compound stock solution was diluted with DMEM medium containing 10% fetal bovine serum to every target concentration, and 10 μL of each was added to each well. Three parallel experiments were set up for each compound. After incubation for 48 h, 10 μL of CCK-8 reagent was added to each well in sequence according to the manufacturer’s instructions. After incubating in a 37 °C incubator for 1–2 h, the absorbance was measured at a wavelength of 450 nm, using a wavelength of 620 nm as a reference, and detected with a ThermoScientific Multiskan FC (Thermo Fisher Scientific). The graphs are representative results, and this experiment was independently repeated three times with similar results.

For `CC(C)C(=O)Nc1ccc(/C(C#N)=C/c2ccc3c(c2)OCO3)cc1` [29b, (Z)-N-(4-(2-(benzo[d][1, 3]dioxol-5-yl)-1-cyanovinyl)phenyl)isobutyramide], the “proliferation-promoting activity (number of BrdU+ newborn cells)” value in series [1] (eleven-week-old rats (n = 2), Figures 3-6, 4 mg/kg/day) was “significant proliferation-promoting activity; also recorded: satisfactory activity”. Besides, in series [1], the “proliferation-promoting activity (number of BrdU+ positive cells)” value is listed as “significant proliferation-promoting activity; also recorded: exhibited proliferative activity”. Further, the “neurogenesis-promoting activity (number of NeuN+ and BrdU+ cells, newborn neurons)” value in series [2] (nine-week-old rats (n = 2), i.p. 4.0 mg/kg/day for 28 days, BrdU pulse, Figure 7B, 4 mg/kg/day) is on record as “significant neurogenesis-promoting activity; also recorded: significantly increased the number of newborn neurons”. The “neurogenesis-promoting activity (number of NeuN+ and BrdU+ cells), differentiation stage” value in series [2] is reported as “significant neurogenesis-promoting activity; also recorded: better activity than the clinical drug NSI-189”. Further, the IC50 in series [3] is more than 200 µM.

In the case of `CC(C)C(=O)Nc1ccc(/C=C(\C#N)c2ccc3c(c2)OCO3)cc1` [32b, (Z)-N-(4-(2-(benzo[d][1, 3]dioxol-5-yl)-2-cyanovinyl)phenyl)isobutyramide], the “proliferation-promoting activity (number of BrdU+ positive cells)” value in series [1] is reported as “significant proliferation-promoting activity; also recorded: exhibited proliferative activity”. In addition, in series [2], the “neurogenesis-promoting activity (number of NeuN+ and BrdU+ cells), differentiation stage” value is “significant neurogenesis-promoting activity; also recorded: better activity than the clinical drug NSI-189; also recorded: highest activity”. The compound further yielded a half-inhibitory concentration (IC50) in series [3] of more than 200 µM.

The values above are taken from paper PMC10816640, “Discovery of Novel Diphenyl Acrylonitrile Derivatives That Promote Adult Rats’ Hippocampal Neurogenesis” (International Journal of Molecular Sciences, 2024).
